Calls of active or inactive are those of the source. No cut-off for these calls is given here.
Legend:
[1] = system: Phosphatidylinositol 4,5-bisphosphate 3-kinase catalytic subunit alpha isoform (Homo sapiens), P42336 [E545A]; conditions: Compound concentration 1000.0 nM
[2] = molecular target: RAC-beta serine/threonine-protein kinase (Homo sapiens) (UniProt P31751); conditions: Compound concentration 1000.0 nM
[3] = molecular target: Serine/threonine-protein kinase PAK 1 (Homo sapiens) (UniProt Q13153); conditions: Compound concentration 1000.0 nM
[4] = molecular target: Mitogen-activated protein kinase kinase kinase 2 (Homo sapiens) (UniProt Q9Y2U5); conditions: Compound concentration 1000.0 nM
[5] = molecular target: cAMP-dependent protein kinase catalytic subunit alpha (Homo sapiens) (UniProt P17612); conditions: Compound concentration 1000.0 nM
[6] = molecular target: Dual specificity tyrosine-phosphorylation-regulated kinase 2 (Homo sapiens) (UniProt Q92630); conditions: Compound concentration 1000.0 nM
[7] = molecular target: MAP kinase-interacting serine/threonine-protein kinase 2 (Homo sapiens) (UniProt Q9HBH9); conditions: Compound concentration 1000.0 nM
[8] = molecular target: Discoidin domain-containing receptor 2 (Homo sapiens) (UniProt Q16832); conditions: Compound concentration 1000.0 nM
[9] = molecular target: T1, Mucosa-associated lymphoid tissue lymphoma translocation protein 1 (Homo sapiens, UniProt Q9UDY8); test: Jurkat IL-2 (IL2-RGA PMA + anti-CD28); type: cell-based
T1 sequence (Q9UDY8 whole entry): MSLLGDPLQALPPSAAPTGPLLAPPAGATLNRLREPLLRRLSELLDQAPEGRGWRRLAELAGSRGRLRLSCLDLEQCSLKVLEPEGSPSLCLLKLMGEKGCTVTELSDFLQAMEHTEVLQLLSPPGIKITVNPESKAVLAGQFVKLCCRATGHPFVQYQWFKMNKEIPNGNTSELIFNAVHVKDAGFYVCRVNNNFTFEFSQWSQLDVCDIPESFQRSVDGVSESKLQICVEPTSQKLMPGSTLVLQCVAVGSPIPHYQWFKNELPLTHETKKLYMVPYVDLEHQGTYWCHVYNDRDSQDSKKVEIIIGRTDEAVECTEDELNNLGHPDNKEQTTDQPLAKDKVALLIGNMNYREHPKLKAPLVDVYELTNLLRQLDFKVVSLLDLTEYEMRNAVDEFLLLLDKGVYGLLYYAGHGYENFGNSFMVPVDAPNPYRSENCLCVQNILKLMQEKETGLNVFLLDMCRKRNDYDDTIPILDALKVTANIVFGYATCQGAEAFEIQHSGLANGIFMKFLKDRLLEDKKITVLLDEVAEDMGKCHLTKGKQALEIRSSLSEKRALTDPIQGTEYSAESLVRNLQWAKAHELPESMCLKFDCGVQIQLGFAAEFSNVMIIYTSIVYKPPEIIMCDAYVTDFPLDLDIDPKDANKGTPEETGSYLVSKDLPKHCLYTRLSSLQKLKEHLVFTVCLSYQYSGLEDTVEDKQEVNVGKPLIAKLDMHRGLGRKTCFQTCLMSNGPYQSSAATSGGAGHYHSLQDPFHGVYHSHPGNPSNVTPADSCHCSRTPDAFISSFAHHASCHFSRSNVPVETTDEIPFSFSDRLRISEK

[10] = molecular target: Mitogen-activated protein kinase 8 (Homo sapiens) (UniProt P45983); conditions: Compound concentration 1000.0 nM
[11] = molecular target: Protein-tyrosine kinase 6 (Homo sapiens) (UniProt Q13882); conditions: Compound concentration 1000.0 nM
[12] = molecular target: Serine/threonine-protein kinase SIK2 (Homo sapiens) (UniProt Q9H0K1); conditions: Compound concentration 1000.0 nM
[13] = molecular target: Homeodomain-interacting protein kinase 4 (Homo sapiens) (UniProt Q8NE63); conditions: Compound concentration 1000.0 nM
[14] = molecular target: Protein-tyrosine kinase 2-beta (Homo sapiens) (UniProt Q14289); conditions: Compound concentration 1000.0 nM
[15] = molecular target: Mitogen-activated protein kinase kinase kinase 20 (Homo sapiens) (UniProt Q9NYL2); conditions: Compound concentration 1000.0 nM
[16] = molecular target: Serine/threonine-protein kinase 16 (Homo sapiens) (UniProt O75716); conditions: Compound concentration 1000.0 nM
[17] = molecular target: Serine/threonine-protein kinase 17A (Homo sapiens) (UniProt Q9UEE5); conditions: Compound concentration 1000.0 nM
[18] = molecular target: Serine/threonine-protein kinase 10 (Homo sapiens) (UniProt O94804); conditions: Compound concentration 1000.0 nM
[19] = molecular target: AP2-associated protein kinase 1 (Homo sapiens) (UniProt Q2M2I8); conditions: Compound concentration 1000.0 nM
[20] = molecular target: Casein kinase II subunit alpha (Homo sapiens) (UniProt P68400); conditions: Compound concentration 1000.0 nM
[21] = molecular target: 5-hydroxytryptamine receptor 1D (Homo sapiens) (UniProt P28221); conditions: Compound concentration 10.0 uM
[22] = molecular target: Ephrin type-A receptor 7 (Homo sapiens) (UniProt Q15375); conditions: Compound concentration 1000.0 nM
[23] = molecular target: Bone morphogenetic protein receptor type-1A (Homo sapiens) (UniProt P36894); conditions: Compound concentration 1000.0 nM
[24] = molecular target: Ephrin type-A receptor 1 (Homo sapiens) (UniProt P21709); conditions: Compound concentration 1000.0 nM
[25] = molecular target: Muscle, skeletal receptor tyrosine-protein kinase (Homo sapiens) (UniProt O15146); conditions: Compound concentration 1000.0 nM
[26] = molecular target: Ribosomal protein S6 kinase alpha-4 (Homo sapiens) (UniProt O75676); conditions: Compound concentration 1000.0 nM
[27] = molecular target: Calcium/calmodulin-dependent protein kinase type II subunit delta (Homo sapiens) (UniProt Q13557); conditions: Compound concentration 1000.0 nM
[28] = molecular target: MAP kinase-interacting serine/threonine-protein kinase 1 (Homo sapiens) (UniProt Q9BUB5); conditions: Compound concentration 1000.0 nM
[29] = molecular target: Tyrosine-protein kinase FRK (Homo sapiens) (UniProt P42685); conditions: Compound concentration 1000.0 nM
[30] = molecular target: T1, Mucosa-associated lymphoid tissue lymphoma translocation protein 1; test: Human biochemical (TR-FRET) assay (high salt)
[31] = molecular target: Cyclin-dependent kinase-like 5 (Homo sapiens) (UniProt O76039); conditions: Compound concentration 1000.0 nM
[32] = molecular target: Phosphatidylinositol 3-kinase catalytic subunit type 3 (Homo sapiens) (UniProt Q8NEB9); conditions: Compound concentration 1000.0 nM
[33] = molecular target: Serine/threonine-protein kinase Nek4 (Homo sapiens) (UniProt P51957); conditions: Compound concentration 1000.0 nM
[34] = molecular target: Cyclin-dependent kinase 13 (Homo sapiens) (UniProt Q14004); conditions: Compound concentration 1000.0 nM

Chain of Dual specificity tyrosine-phosphorylation-regulated kinase 2 (Homo sapiens) (Q92630 whole entry): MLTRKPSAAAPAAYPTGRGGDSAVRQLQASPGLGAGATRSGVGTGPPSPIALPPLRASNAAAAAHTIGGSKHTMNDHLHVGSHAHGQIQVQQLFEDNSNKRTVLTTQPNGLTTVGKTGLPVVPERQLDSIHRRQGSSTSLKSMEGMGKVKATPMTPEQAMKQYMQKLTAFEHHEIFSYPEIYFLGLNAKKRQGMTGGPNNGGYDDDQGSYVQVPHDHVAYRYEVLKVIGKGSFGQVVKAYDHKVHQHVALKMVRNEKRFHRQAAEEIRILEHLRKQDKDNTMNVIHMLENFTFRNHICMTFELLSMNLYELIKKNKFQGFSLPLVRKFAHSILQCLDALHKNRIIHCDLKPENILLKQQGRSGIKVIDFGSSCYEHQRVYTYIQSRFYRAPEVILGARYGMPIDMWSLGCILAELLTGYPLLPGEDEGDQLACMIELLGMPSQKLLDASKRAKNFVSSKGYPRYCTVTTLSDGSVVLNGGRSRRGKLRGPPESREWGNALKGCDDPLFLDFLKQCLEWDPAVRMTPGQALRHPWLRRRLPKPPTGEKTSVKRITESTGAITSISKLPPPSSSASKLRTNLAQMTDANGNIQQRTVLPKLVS
Chain of MAP kinase-interacting serine/threonine-protein kinase 1 (Homo sapiens) (Q9BUB5 whole entry, looked up): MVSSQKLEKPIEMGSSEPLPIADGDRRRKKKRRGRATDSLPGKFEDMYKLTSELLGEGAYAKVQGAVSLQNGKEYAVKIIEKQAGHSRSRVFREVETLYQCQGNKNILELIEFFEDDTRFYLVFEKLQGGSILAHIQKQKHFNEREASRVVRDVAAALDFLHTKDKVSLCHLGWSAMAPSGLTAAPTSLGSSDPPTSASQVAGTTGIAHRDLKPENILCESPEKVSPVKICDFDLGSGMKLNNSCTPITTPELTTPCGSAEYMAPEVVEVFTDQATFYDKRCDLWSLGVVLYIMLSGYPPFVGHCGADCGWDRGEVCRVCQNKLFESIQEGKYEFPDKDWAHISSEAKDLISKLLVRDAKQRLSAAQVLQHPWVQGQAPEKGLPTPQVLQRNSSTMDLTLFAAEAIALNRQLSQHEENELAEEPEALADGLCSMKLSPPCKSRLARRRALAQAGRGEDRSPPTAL
Chain of Protein-tyrosine kinase 6 (Homo sapiens) (Q13882 whole entry, looked up): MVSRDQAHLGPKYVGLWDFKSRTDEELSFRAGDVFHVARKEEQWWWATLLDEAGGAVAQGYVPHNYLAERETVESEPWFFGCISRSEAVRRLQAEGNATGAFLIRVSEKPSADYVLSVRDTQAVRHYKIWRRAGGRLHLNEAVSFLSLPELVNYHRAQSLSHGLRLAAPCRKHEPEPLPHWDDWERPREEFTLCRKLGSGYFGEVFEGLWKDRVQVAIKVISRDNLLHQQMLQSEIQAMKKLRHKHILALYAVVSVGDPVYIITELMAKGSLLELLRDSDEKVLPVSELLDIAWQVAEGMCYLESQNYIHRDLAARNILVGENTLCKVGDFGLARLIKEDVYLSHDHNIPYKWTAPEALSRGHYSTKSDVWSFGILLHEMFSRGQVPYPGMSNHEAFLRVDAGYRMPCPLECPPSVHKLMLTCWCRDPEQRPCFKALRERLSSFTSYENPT
Chain of MAP kinase-interacting serine/threonine-protein kinase 2 (Homo sapiens) (Q9HBH9 whole entry, looked up, the tested form may be a part): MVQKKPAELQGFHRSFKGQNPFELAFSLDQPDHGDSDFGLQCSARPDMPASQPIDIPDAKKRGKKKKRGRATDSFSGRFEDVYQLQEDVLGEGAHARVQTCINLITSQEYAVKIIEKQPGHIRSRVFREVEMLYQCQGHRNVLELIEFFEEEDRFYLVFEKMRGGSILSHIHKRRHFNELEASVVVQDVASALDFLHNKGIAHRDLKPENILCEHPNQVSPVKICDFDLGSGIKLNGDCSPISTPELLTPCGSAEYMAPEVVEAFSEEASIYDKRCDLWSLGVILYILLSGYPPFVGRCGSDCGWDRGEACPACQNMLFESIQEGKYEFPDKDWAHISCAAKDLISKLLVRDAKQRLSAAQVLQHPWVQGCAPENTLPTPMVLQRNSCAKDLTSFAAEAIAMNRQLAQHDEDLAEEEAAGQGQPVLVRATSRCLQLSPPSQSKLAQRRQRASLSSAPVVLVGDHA
Chain of Ribosomal protein S6 kinase alpha-4 (Homo sapiens) (O75676 whole entry, looked up): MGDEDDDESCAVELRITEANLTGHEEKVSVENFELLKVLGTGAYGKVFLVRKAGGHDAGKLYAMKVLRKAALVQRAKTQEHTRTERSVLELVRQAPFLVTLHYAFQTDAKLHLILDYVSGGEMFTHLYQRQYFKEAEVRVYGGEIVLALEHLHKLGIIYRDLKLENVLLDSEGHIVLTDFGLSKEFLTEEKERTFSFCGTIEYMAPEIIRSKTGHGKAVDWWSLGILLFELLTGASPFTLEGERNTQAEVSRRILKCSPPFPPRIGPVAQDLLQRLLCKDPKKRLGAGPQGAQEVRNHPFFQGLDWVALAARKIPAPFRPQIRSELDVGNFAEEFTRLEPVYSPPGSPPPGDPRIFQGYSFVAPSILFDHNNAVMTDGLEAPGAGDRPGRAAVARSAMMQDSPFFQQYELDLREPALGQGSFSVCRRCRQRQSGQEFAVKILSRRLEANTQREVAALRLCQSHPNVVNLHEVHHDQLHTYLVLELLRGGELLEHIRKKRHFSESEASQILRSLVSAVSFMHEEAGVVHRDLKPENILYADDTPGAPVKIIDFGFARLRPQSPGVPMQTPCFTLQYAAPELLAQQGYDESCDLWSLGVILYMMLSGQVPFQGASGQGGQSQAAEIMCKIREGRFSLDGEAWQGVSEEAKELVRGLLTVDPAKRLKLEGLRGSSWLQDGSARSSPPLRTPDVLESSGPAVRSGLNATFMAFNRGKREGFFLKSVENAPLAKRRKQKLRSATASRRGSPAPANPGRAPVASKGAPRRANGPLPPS
Chain of Discoidin domain-containing receptor 2 (Homo sapiens) (Q16832 whole entry, the tested form may be a part): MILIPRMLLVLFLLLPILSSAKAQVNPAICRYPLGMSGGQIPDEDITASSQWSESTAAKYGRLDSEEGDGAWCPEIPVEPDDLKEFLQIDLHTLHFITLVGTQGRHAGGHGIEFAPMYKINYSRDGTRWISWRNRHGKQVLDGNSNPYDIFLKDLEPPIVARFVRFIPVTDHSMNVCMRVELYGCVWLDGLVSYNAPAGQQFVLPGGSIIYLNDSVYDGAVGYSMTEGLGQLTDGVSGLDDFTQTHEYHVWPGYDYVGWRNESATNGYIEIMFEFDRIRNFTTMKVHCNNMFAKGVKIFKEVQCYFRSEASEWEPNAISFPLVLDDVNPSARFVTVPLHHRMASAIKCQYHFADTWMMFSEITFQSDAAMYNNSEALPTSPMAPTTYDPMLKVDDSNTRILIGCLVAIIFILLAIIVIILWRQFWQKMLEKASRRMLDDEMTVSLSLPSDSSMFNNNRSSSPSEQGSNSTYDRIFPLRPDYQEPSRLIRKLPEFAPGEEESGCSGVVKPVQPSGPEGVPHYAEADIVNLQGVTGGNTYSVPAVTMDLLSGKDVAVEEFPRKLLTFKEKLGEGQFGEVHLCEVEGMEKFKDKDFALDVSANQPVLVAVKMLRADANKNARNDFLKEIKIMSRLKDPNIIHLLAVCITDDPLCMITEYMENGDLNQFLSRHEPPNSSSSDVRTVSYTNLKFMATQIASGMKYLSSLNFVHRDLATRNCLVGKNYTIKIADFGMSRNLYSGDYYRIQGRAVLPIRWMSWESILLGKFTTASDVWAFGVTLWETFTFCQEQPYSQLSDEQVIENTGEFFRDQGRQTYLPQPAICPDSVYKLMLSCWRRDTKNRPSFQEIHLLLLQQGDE
Chain of Serine/threonine-protein kinase 17A (Homo sapiens) (Q9UEE5 whole entry): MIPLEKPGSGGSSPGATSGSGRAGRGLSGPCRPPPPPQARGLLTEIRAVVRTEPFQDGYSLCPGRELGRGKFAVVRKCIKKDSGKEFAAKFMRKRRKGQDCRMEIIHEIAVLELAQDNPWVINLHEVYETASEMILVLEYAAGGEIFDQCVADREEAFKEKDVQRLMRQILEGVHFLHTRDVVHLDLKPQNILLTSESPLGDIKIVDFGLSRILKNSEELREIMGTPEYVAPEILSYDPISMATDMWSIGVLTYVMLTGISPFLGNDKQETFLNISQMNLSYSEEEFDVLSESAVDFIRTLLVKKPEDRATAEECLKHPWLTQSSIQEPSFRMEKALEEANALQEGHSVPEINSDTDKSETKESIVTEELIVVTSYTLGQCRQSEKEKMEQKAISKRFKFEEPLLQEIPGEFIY
Chain of Calcium/calmodulin-dependent protein kinase type II subunit delta (Homo sapiens) (Q13557 whole entry): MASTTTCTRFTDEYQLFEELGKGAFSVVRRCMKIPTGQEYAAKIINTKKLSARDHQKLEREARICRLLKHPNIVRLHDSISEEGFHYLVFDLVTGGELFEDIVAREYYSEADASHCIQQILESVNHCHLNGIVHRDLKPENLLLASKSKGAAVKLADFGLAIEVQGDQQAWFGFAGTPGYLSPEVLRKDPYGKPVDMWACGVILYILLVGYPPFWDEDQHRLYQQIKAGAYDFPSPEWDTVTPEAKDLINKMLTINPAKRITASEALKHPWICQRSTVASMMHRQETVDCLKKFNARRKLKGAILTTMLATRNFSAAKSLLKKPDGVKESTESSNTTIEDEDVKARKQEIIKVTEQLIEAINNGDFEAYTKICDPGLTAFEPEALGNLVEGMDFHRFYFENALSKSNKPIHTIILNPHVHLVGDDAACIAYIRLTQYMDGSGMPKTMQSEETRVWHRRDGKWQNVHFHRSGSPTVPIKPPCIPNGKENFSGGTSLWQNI
Chain of 5-hydroxytryptamine receptor 1D (Homo sapiens) (P28221 whole entry): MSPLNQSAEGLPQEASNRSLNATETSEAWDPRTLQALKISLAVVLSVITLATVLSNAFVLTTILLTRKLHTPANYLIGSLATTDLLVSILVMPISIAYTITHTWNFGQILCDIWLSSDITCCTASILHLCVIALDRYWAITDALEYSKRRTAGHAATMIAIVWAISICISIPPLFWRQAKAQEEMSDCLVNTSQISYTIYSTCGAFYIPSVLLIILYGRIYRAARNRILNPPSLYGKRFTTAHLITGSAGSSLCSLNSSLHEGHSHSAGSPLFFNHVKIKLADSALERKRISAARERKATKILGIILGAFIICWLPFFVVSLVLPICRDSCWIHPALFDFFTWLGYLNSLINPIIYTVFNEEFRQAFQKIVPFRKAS

With CO[C@@H](C)c1c(Nc2ccc([C@@H](N(C)C(=O)C3CCS(=O)(=O)CC3)C(F)(F)F)cc2)cnc2cc(Cl)nn12 [NVS-MALT1-C] the residual activity [1] was 77%, the residual activity [2] was 91% and the residual activity [3] was 83%. The residual activity [4] was 100%, the residual activity [5] was 87% and the residual activity [6] was 95%. The residual activity [7] was 85%, the residual activity [8] was 100% and the IC50 [9] was 1.9 µM (active). For the same compound, the residual activity [10] was 69%, the residual activity [11] was 100% and the residual activity [12] was 92%. The residual activity [13] was 100%, the residual activity [14] was 100% and the residual activity [15] was 100%. For the same compound, the residual activity [16] was 100%, the residual activity [17] was 90% and the residual activity [18] was 98%. The residual activity [19] was 96%, the residual activity [20] was 100% and the inhibition [21] was -3.07%. For the same compound, the residual activity [22] was 87%, the residual activity [23] was 100% and the residual activity [24] was 97%. It also gave a residual activity [25] of 88%, a residual activity [26] of 94% and a residual activity [27] of 100%. For the same compound, the residual activity [28] was 100%, the residual activity [29] was 91% and the IC50 [30] was 0.19 µM (active). It also gave a residual activity [31] of 89%, a residual activity [32] of 100% and a residual activity [33] of 90%. It also gave a residual activity [34] of 100%.

With CO[C@@H](C)c1c(Nc2ccc([C@H](N(C)C(=O)C3CCS(=O)(=O)CC3)C(F)(F)F)cc2)cnc2cc(Cl)nn12 [NVS-MALT1] the residual activity [1] was 65%, the residual activity [2] was 99% and the residual activity [3] was 74%. The residual activity [4] was 100%, the residual activity [5] was 90% and the residual activity [6] was 89%. For the same compound, the residual activity [7] was 100%, the residual activity [8] was 100% and the IC50 [9] was 0.0034 µM (active). The residual activity [10] was 86%, the residual activity [11] was 81% and the residual activity [12] was 87%. It also gave a residual activity [13] of 72%, a residual activity [14] of 83% and a residual activity [15] of 100%. For the same compound, the residual activity [16] was 75%, the residual activity [17] was 87% and the residual activity [18] was 100%. For the same compound, the residual activity [19] was 84%, the residual activity [20] was 100% and the inhibition [21] was -2.45%. It also gave a residual activity [22] of 84%, a residual activity [23] of 71% and a residual activity [24] of 100%. For the same compound, the residual activity [25] was 83%, the residual activity [26] was 86% and the residual activity [27] was 86%. The residual activity [28] was 100%, the residual activity [29] was 80% and the IC50 [30] was 0.0024 µM (active). It also gave a residual activity [31] of 95%, a residual activity [32] of 100% and a residual activity [33] of 90%. The residual activity [34] was 100%.
